According to US4734492A, “Macrolide antibiotic M 119” (Kirin Beer Kabushiki Kaisha, priority 1985, dated 1988):
≈ marks a conversion by molar mass, not a printed value. Like-named read-outs stand apart in the source and are kept apart here.

Columns and labels:
[1] = test system: Serratia marcescens IAM 1184 (MS-1); experiment: MIC by agar dilution method; type: cell-based; conditions: IAM1184
From the text: (§1) Also shown in the same table are the MIC's obtained for josamycin (JM) and erythromycin (EM) as controls.

[2] = test system: Streptococcus pyogenes Cook (MS-1); experiment: MIC by agar dilution method; type: cell-based
From the text: as §1

[3] = test system: Salmonella schottmuelleri 8006 (MS-1); experiment: MIC by agar dilution method; type: cell-based
From the text: as §1

[4] = test system: Micrococcus luteus ATCC 9341 (MS-1); experiment: MIC by agar dilution method; type: cell-based; conditions: ATCC9341
From the text: as §1

[5] = test system: Staphylococcus aureus FDA 209PJC-1 (MS-1); experiment: MIC by agar dilution method; type: cell-based
From the text: as §1

[6] = test system: Salmonella typhi 901 (MS-1); experiment: MIC by agar dilution method; type: cell-based; conditions: Salmonella enterica
From the text: as §1

[7] = test system: Pseudomonas aeruginosa IFO 3445 (MS-1); experiment: MIC by agar dilution method; type: cell-based; conditions: IFO3445
From the text: as §1

[8] = test system: Salmonella enteritidis G 14 (MS-1); experiment: MIC by agar dilution method; type: cell-based; conditions: Salmonella enterica
From the text: as §1

[9] = test system: Salmonella paratyphi 1015 (MS-1); experiment: MIC by agar dilution method; type: cell-based; conditions: Salmonella enterica
From the text: as §1

[10] = test system: Escherichia coli K12 C600 (MS-1); experiment: MIC by agar dilution method; type: cell-based; conditions: E. coli K12 C600 (MS-1)
From the text: as §1

[11] = test system: Enterobacter cloacae 963 (MS-1); experiment: MIC by agar dilution method; type: cell-based
From the text: as §1

[12] = test system: Klebsiella pneumoniae PCI-602 (MS-1); experiment: MIC by agar dilution method; type: cell-based
From the text: as §1

[13] = test system: Proteus vulgaris OX-19 (MS-1); experiment: MIC by agar dilution method; type: cell-based
From the text: as §1

[14] = test system: Bacillus subtilis ATCC 6633 (MS-1); experiment: MIC by agar dilution method; type: cell-based; conditions: ATCC6633
From the text: as §1

[15] = test system: Staphylococcus aureus MS 353 (MS-1); experiment: MIC by agar dilution method; type: cell-based
From the text: as §1

[16] = test system: Pseudomonas aeruginosa PAO 1 (MS-1); experiment: MIC by agar dilution method; type: cell-based
From the text: as §1

[17] = test system: Proteus rettgeri IFO 3850 (MS-1); experiment: MIC by agar dilution method; type: cell-based; conditions: Providencia rettgeri, IFO3850
From the text: as §1

[18] = test system: Enterobacter aerogenes ATCC 13048 (MS-1); experiment: MIC by agar dilution method; type: cell-based; conditions: Klebsiella aerogenes, ATCC13048
From the text: as §1

[19] = test system: Salmonella typhimurium IID971 (MS-1); experiment: MIC by agar dilution method; type: cell-based; conditions: Salmonella enterica
From the text: as §1

[20] = test system: Bacillus cereus IAM 1729; experiment: MIC by agar dilution method; type: cell-based; conditions: IAM1729
From the text: as §1

[21] = test system: Escherichia coli NIHJ-JC-2 (MS-1); experiment: MIC by agar dilution method; type: cell-based; conditions: NIHJJC2, E. coli NIHJ-JC-2 (MS-1)
From the text: as §1

[22] = test system: Staphylococcus aureus Terajima (MS-1); experiment: MIC by agar dilution method; type: cell-based
From the text: as §1

[23] = test system: Pseudomonas aeruginosa NCTC 10490 (MS-1); experiment: MIC by agar dilution method; type: cell-based; conditions: NCTC10490
From the text: as §1

[24] = test system: Proteus morganii IFO 3848 (MS-1); experiment: MIC by agar dilution method; type: cell-based; conditions: Morganella morganii, IFO3848
From the text: as §1

[25] = Solubility; type: physicochemical
[26] = test system: Staphylococcus aureus MS 15009 (pI258) Mac^r; experiment: MIC by agar dilution method; type: cell-based
From the text: as §1
(§2) Note: "Mac^r " stands for a constitutive macrolide resistant

[27] = test system: Staphylococcus aureus MS 12917 Mac^r; experiment: MIC by agar dilution method; type: cell-based
From the text: as §1, §2

[28] = test system: Mycoplasma pneumoniae; experiment: MIC by agar dilution method; type: cell-based
From the text: as §1

[29] = agar dilution, Serratia marcescens IAM 1184 (MS-1), read-out: MIC
[30] = agar dilution, Streptococcus pyogenes Cook (MS-1), read-out: MIC
[31] = agar dilution, Micrococcus luteus ATCC 9341 (MS-1), read-out: MIC
[32] = agar dilution, S. aureus FDA 209PJC-1 (MS-1), read-out: MIC
[33] = agar dilution, Pseudomonas aeruginosa IFO 3445 (MS-1), read-out: MIC
[34] = agar dilution, Salmonella enteritidis G 14 (MS-1), read-out: MIC
[35] = agar dilution, Enterobacter cloacae 963 (MS-1), read-out: MIC
[36] = agar dilution, Klebsiella pneumoniae PCI-602 (MS-1), read-out: MIC
[37] = agar dilution, Proteus vulgaris OX-19 (MS-1), read-out: MIC
[38] = agar dilution, Bacillus subtilis ATCC 6633 (MS-1), read-out: MIC
[39] = agar dilution, S. aureus MS 353 (MS-1), read-out: MIC
[40] = agar dilution, Pseudomonas aeruginosa PAO 1 (MS-1), read-out: MIC
[41] = agar dilution, Proteus rettgeri IFO 3850 (MS-1), read-out: MIC
[42] = agar dilution, Enterobacter aerogenes ATCC 13048 (MS-1), read-out: MIC
[43] = agar dilution, Salmonella typhimurium IID971 (MS-1), read-out: MIC
[44] = agar dilution, Bacillus cereus IAM 1729, read-out: MIC
[45] = agar dilution, S. aureus Terajima (MS-1), read-out: MIC
[46] = agar dilution, Pseudomonas aeruginosa NCTC 10490 (MS-1), read-out: MIC
[47] = agar dilution, Proteus morganii IFO 3848 (MS-1), read-out: MIC
[48] = agar dilution, Mycoplasma pneumoniae, read-out: MIC

| Compound | MIC [1, 29] [µg/mL] | MIC [2, 30] [µg/mL] | MIC [3] [µg/mL] | MIC [4, 31] [µg/mL] | MIC [5, 32] [µg/mL] | MIC [6] [µg/mL] | MIC [7, 33] [µg/mL] | MIC [8, 34] [µg/mL] | MIC [9] [µg/mL] | MIC [10] [µg/mL] | MIC [11, 35] [µg/mL] | MIC [12, 36] [µg/mL] | MIC [13, 37] [µg/mL] | MIC [14, 38] [µg/mL] | MIC [15, 39] [µg/mL] | MIC [16, 40] [µg/mL] | MIC [17, 41] [µg/mL] | MIC [21] [µg/mL] | MIC [26] [µg/mL] | MIC [27] [µg/mL] | also measured |
| --- | --- | --- | --- | --- | --- | --- | --- | --- | --- | --- | --- | --- | --- | --- | --- | --- | --- | --- | --- | --- | --- |
| CCC1OC(=O)CC(O)C(C)C(OC2OC(C)C(OC3CC(C)(O)C(O)C(C)O3)C(N(C)C)C2O)C(CC=O)CC(C)C(=O)C=CC2(C)OC2C1(C)O (stereo not drawn) [M 119-d] | > 100 | 0.78 (≈ 1.03 µM) | 25 (≈ 33 µM) | 0.2 (≈ 0.264 µM) | 0.78 (≈ 1.03 µM) | 100 (≈ 132 µM) | > 100 | > 100 | 25 (≈ 33 µM) | 100 (≈ 132 µM) | > 100 | 12.5 (≈ 16.5 µM) | > 100 | 0.78 (≈ 1.03 µM) | 3.13 (≈ 4.13 µM) | > 100 | > 100 | > 100 | > 100 | > 100 | MIC [18, 42]: 100 µg/mL (≈ 132 µM); MIC [19, 43]: > 100 µg/mL; MIC [20, 44]: 1.56 µg/mL (≈ 2.06 µM); MIC [22, 45]: 3.13 µg/mL (≈ 4.13 µM); MIC [23, 46]: > 100 µg/mL; MIC [24, 47]: 50 µg/mL (≈ 66 µM); Solubility ([25]; in hexane, ether and water): insoluble; Solubility ([25]; in methanol and chloroform): Soluble |
| CC[C@H]1OC(=O)[C@H](C)[C@@H](O[C@H]2C[C@@](C)(OC)[C@@H](O)[C@H](C)O2)[C@H](C)[C@@H](O[C@@H]2O[C@H](C)C[C@H](N(C)C)[C@H]2O)[C@](C)(O)C[C@@H](C)C(=O)[C@H](C)[C@@H](O)[C@]1(C)O [EM, erythromycin, reference compound] |  |  | 50 (≈ 68.1 µM) |  |  | 50 (≈ 68.1 µM) |  |  | 25 (≈ 34.1 µM) | 50 (≈ 68.1 µM) |  |  |  |  |  |  |  | 100 (≈ 136 µM) | > 100 | > 100 | MIC ([1]; Serratia marcescens): 100 µg/mL (≈ 136 µM); MIC ([2]; Streptococcus pyogenes): 0.2 µg/mL (≈ 0.273 µM); MIC ([4]; Micrococcus luteus): < 0.1 µg/mL; MIC [5]: 0.2 µg/mL (≈ 0.273 µM); MIC ([28]; Mycoplasma): 0.1 µg/mL (≈ 0.136 µM); MIC ([7]; Pseudomonas aeruginosa): > 100 µg/mL; MIC ([8]; ENTERITIDIS): 100 µg/mL (≈ 136 µM); MIC ([11]; Enterobacter cloacae): > 100 µg/mL; MIC ([12]; Klebsiella pneumoniae): 6.25 µg/mL (≈ 8.52 µM); MIC ([13]; Proteus vulgaris): > 100 µg/mL; MIC ([14]; Bacillus subtilis): < 0.1 µg/mL; MIC [15]: 0.2 µg/mL (≈ 0.273 µM); MIC ([16]; Pseudomonas aeruginosa): > 100 µg/mL; MIC [17]: > 100 µg/mL; MIC [18]: 100 µg/mL (≈ 136 µM); MIC [19]: 100 µg/mL (≈ 136 µM); MIC ([20]; Bacillus cereus): 0.2 µg/mL (≈ 0.273 µM); MIC [22]: 0.2 µg/mL (≈ 0.273 µM); MIC ([23]; Pseudomonas aeruginosa): > 100 µg/mL; MIC [24]: 25 µg/mL (≈ 34.1 µM) |
| CCC1OC(=O)CC(O)C(C)C(OC2OC(C)C(OC3CC(C)(O)C(O)C(C)O3)C(N(C)C)C2O)C(CC=O)CC(C)C(=O)C=CC2(C)OC2C1C (stereo not drawn) [M 119-a] | > 100 | 0.2 (≈ 0.27 µM) | 100 (≈ 135 µM) | < 0.1 | 0.2 (≈ 0.27 µM) | 100 (≈ 135 µM) | > 100 | > 100 | 50 (≈ 67.4 µM) | 100 (≈ 135 µM) | > 100 | 12.5 (≈ 16.8 µM) | > 100 | 0.2 (≈ 0.27 µM) | 0.78 (≈ 1.05 µM) | > 100 | > 100 | > 100 | > 100 | > 100 | MIC [28, 48]: 0.1 µg/mL (≈ 0.135 µM); MIC [18, 42]: > 100 µg/mL; MIC [19, 43]: > 100 µg/mL; MIC [20, 44]: 0.39 µg/mL (≈ 0.526 µM); MIC [22, 45]: 0.78 µg/mL (≈ 1.05 µM); MIC [23, 46]: > 100 µg/mL; MIC [24, 47]: 50 µg/mL (≈ 67.4 µM); Solubility ([25]; in hexane, ether and water): insoluble; Solubility ([25]; in methanol and chloroform): Soluble |
| CO[C@@H]1[C@@H](O[C@@H]2O[C@H](C)[C@@H](O[C@H]3C[C@@](C)(O)[C@@H](OC(=O)CC(C)C)[C@H](C)O3)[C@H](N(C)C)[C@H]2O)[C@@H](CC=O)C[C@@H](C)[C@@H](O)/C=C/C=C/C[C@@H](C)OC(=O)C[C@H]1OC(C)=O [JM, josamycin, reference compound] | > 100 | 0.2 (≈ 0.242 µM) | > 100 | < 0.1 | 0.2 (≈ 0.242 µM) | > 100 | > 100 | > 100 | 100 (≈ 121 µM) | > 100 | > 100 | 12.5 (≈ 15.1 µM) | > 100 | 0.39 (≈ 0.471 µM) | 0.78 (≈ 0.942 µM) | > 100 | > 100 | > 100 | > 100 | > 100 | MIC [28, 48]: 0.2 µg/mL (≈ 0.242 µM); MIC [18, 42]: > 100 µg/mL; MIC [19, 43]: > 100 µg/mL; MIC [20, 44]: 0.39 µg/mL (≈ 0.471 µM); MIC [22, 45]: 0.78 µg/mL (≈ 0.942 µM); MIC [23, 46]: > 100 µg/mL; MIC [24, 47]: > 100 µg/mL |
